The results in this text go back to PubChem BioAssay AID1919008 (Molecular Pharmacology Branch, DTP, NCI, 2023).

For orientation: IC50 means the midpoint of a concentration-inhibition curve. As a reminder, the viability, T/C is the ratio of treated to control.

Values joined by “and” are separate entries in the source; they are usually repeats but may differ in a detail not shown here. Equal values may be shown once. A value given as a limit tells only on which side of the number the result lay.

The test system of the assay is DMS-114 complex spheroids with HUVEC/MSC, growth % test/control. The experiment in a line: Anticancer human tumor DMS-114 cell line growth inhibition [AhR].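 As to all read-outs here: spheroids exposed to agents for 7 days before readout.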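 As to viability, T/C: 100% = DMSO vehicle control wells.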 As to conditions: for viability, T/C: stronger effect = lower value. The procedure, abridged: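 Agents were dosed in half-log steps down from roughly clinical Cmax, or from 10 microM where Cmax was unknown, alone and with AhR antagonists. Read-out: percent test/control growth of tumor spheroids containing HUVEC and MSC stromal cells.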

Where [1] appears, read: curve of first compound, second compound 0.1 µM.
Where [2] appears, read: curve of first compound, second compound 0.316 µM.
Where [3] appears, read: curve of first compound, second compound 1 µM.
Setting [4] is: curve of first compound, second compound 3.16 µM.
Setting [5] is: curve of first compound, second compound 10 µM.
Where [6] appears, read: second compound 0.1 µM, first compound 0.0316 µM.
The mark [7] stands for this setting: second compound 0.1 µM, first compound 0.1 µM.
Setting [8] is: second compound 0.1 µM, first compound 0.316 µM.
Setting [9] is: second compound 0.1 µM, first compound 1 µM.
[10] abbreviates: second compound 0.1 µM, first compound 3.16 µM.
[11] abbreviates: second compound 0.1 µM, first compound 10 µM.
Where [12] appears, read: second compound 0.316 µM, first compound 0.0316 µM.
[13] abbreviates: second compound 0.316 µM, first compound 0.1 µM.
[14] abbreviates: second compound 0.316 µM, first compound 0.316 µM.
[15] abbreviates: second compound 0.316 µM, first compound 1 µM.
Where [16] appears, read: second compound 0.316 µM, first compound 3.16 µM.
Where [17] appears, read: second compound 0.316 µM, first compound 10 µM.
Where [18] appears, read: second compound 1 µM, first compound 0.0316 µM.
[19] abbreviates: second compound 1 µM, first compound 0.1 µM.
The mark [20] stands for this setting: second compound 1 µM, first compound 0.316 µM.
Setting [21] is: second compound 1 µM, first compound 1 µM.
[22] abbreviates: second compound 1 µM, first compound 3.16 µM.
The mark [23] stands for this setting: second compound 1 µM, first compound 10 µM.
Setting [24] is: second compound 3.16 µM, first compound 0.0316 µM.
[25] abbreviates: second compound 3.16 µM, first compound 0.1 µM.
Setting [26] is: second compound 3.16 µM, first compound 0.316 µM.
The mark [27] stands for this setting: second compound 3.16 µM, first compound 1 µM.
[28] abbreviates: second compound 3.16 µM, first compound 3.16 µM.
[29] abbreviates: second compound 3.16 µM, first compound 10 µM.
[30] abbreviates: second compound 10 µM, first compound 0.0316 µM.
Setting [31] is: second compound 10 µM, first compound 0.1 µM.
Where [32] appears, read: second compound 10 µM, first compound 0.316 µM.
[33] abbreviates: second compound 10 µM, first compound 1 µM.
The mark [34] stands for this setting: second compound 10 µM, first compound 3.16 µM.
Where [35] appears, read: second compound 10 µM, first compound 10 µM.

Take `NS(=O)(=O)OCC1CC(n2ccc3c(NC4CCc5ccccc54)ncnc32)CC1O` (stereo not drawn) + CC(CO)NC(=O)c1cc(-c2ccc(Cl)cc2)nn(-c2cnn(C)c2)c1=O: the IC50 is less than 31.6 nM under setting [1]; 38.1 nM under setting [2]; less than 31.6 nM under setting [3]; 33.3 nM under setting [4]; less than 31.6 nM under setting [5]. Also, the viability, T/C is 39.8% under setting [6]; 35.6% under setting [7]; 16% under setting [8]; 11% under setting [9]; 7.57% under setting [10]; 6.46% under setting [11]. Further, the viability, T/C is, setting by setting: under setting [12], 53.4%; under setting [13], 32.2%; under setting [14], 17.7%; under setting [15], 9.64%; under setting [16], 8.09%; under setting [17], 6.7%. The viability, T/C runs as follows: under setting [18], 47.9%; under setting [19], 35.5%; under setting [20], 16.3%; under setting [21], 12.2%; under setting [22], 7.56%; under setting [23], 7.46%. Moreover, the viability, T/C is, setting by setting: under setting [24], 50.6%; under setting [25], 34.8%; under setting [26], 17.8%; under setting [27], 11.7%; under setting [28], 8.81%; under setting [29], 6.82%. For the same compound, the viability, T/C is, setting by setting: under setting [30], 49.4%; under setting [31], 40%; under setting [32], 18.3%; under setting [33], 10.8%; under setting [34], 8.39%; under setting [35], 8.61%.
Turning to `COc1cccc2c1C(=O)c1c(O)c3c(c(O)c1C2=O)CC(O)(C(=O)CO)CC3OC1CC(N)C(O)C(C)O1` (stereo not drawn) + Cc1ccccc1N=Nc1ccc(NC(=O)c2ccnn2C)c(C)c1, the 50% inhibitory concentration (IC50) worked out at 81.6 nM under setting [1]; 110 nM under setting [2]; 107 nM under setting [3]; 104 nM under setting [4]; 98.4 nM under setting [5]. For the same compound, the viability, T/C is 71.6% under setting [6]; 44.9% under setting [7]; 17.1% under setting [8]; 1.65% under setting [9]; 0.32% under setting [10]; 0.78% under setting [11]. The viability, T/C under setting [12] is 75.5%; the viability, T/C under setting [13] was 52.5%; the viability, T/C under setting [14] was 19.4%; the viability, T/C under setting [15] is 1.84%; the viability, T/C under setting [16] was 0.33%; the viability, T/C under setting [17] was 1.22%. The viability, T/C reads like this: under setting [18], 71.4%; under setting [19], 51.8%; under setting [20], 18.3%; under setting [21], 2.28%; under setting [22], 0.52%; under setting [23], 0.56%. Moreover, the viability, T/C is 71% under setting [24]; 50.7% under setting [25]; 19.3% under setting [26]; 1.97% under setting [27]; 0.59% under setting [28]; 0.61% under setting [29]. The viability, T/C is, setting by setting: under setting [30], 68.7%; under setting [31], 48.8%; under setting [32], 21.6%; under setting [33], 1.61%; under setting [34], 0.52%; under setting [35], 0.7%.
With `CCN(c1cc(-c2ccc(CN3CCOCC3)cc2)cc(C(=O)NCc2c(C)cc(C)[nH]c2=O)c1C)C1CCOCC1`, the viability, T/C is, setting by setting: (compound 0.00949 µM) 99.5% and 108% and 105%; (compound 0.03 µM) 110% and 95.2% and 118%; (compound 0.0949 µM) 112% and 105% and 109%; (compound 0.3 µM) 101% and 100% and 115%; (compound 0.949 µM) 73.7% and 104% and 92.1%; (compound 3 µM) 68.2% and 106% and 76.9%. In addition, the IC50 (curve of compound) is more than 3000 nM.
With `Nc1ccn(C2OC(CO)C(O)C2(F)F)c(=O)n1` (stereo not drawn), the viability, T/C is 9.8% and 13.2% and 25.1% (compound 0.0316 µM); 8.85% and 12.6% and 26.8% (compound 0.1 µM); 9.58% and 12.2% and 25.9% (compound 0.316 µM); 10.4% and 11% and 25.1% (compound 1 µM); 9.16% and 11.7% and 24.5% (compound 3.16 µM); 9.05% and 10.8% and 25.4% (compound 10 µM). Also, the IC50 (curve of compound) was less than 31.6 nM.
With `NS(=O)(=O)OCC1CC(n2ccc3c(NC4CCc5ccccc54)ncnc32)CC1O` (stereo not drawn) + Cc1ccccc1N=Nc1ccc(NC(=O)c2ccnn2C)c(C)c1, the IC50 by setting is: under setting [1], 229 nM; under setting [2], 203 nM; under setting [3], 201 nM; under setting [4], 228 nM; under setting [5], 215 nM. For the same compound, the viability, T/C was 137% under setting [6]; 84.8% under setting [7]; 37% under setting [8]; 18.4% under setting [9]; 19% under setting [10]; 16.1% under setting [11]. The viability, T/C was 113% under setting [12]; 73.9% under setting [13]; 34.3% under setting [14]; 22.8% under setting [15]; 17.2% under setting [16]; 16.3% under setting [17]. Besides, the viability, T/C by setting is: under setting [18], 119%; under setting [19], 76.7%; under setting [20], 32%; under setting [21], 23.4%; under setting [22], 21.6%; under setting [23], 17.3%. In addition, the viability, T/C is 128% under setting [24]; 80.9% under setting [25]; 37.6% under setting [26]; 24.1% under setting [27]; 19.9% under setting [28]; 21.3% under setting [29]. Also, the viability, T/C runs as follows: under setting [30], 86.5%; under setting [31], 77.5%; under setting [32], 35.9%; under setting [33], 25.7%; under setting [34], 22.4%; under setting [35], 20.1%.
As for `Nc1ncn(C2CC(O)C(CO)O2)c(=O)n1` (stereo not drawn), the viability, T/C by setting is: (compound 0.00316 µM) 91.9% and 109% and 106%; (compound 0.01 µM) 97.6% and 110% and 95%; (compound 0.0316 µM) 105% and 108% and 88.3%; (compound 0.1 µM) 83.8% and 112% and 109%; (compound 0.316 µM) 66.8% and 110% and 78%; (compound 1 µM) 53.1% and 110% and 66.1%. Also, the IC50 (curve of compound) was more than 1000 nM.
As for `Nc1ccccc1NC(=O)c1ccc(CNC(=O)OCc2cccnc2)cc1` + Cc1cncc(-c2nc(NCCc3c[nH]c4ccccc34)c3ncn(C(C)C)c3n2)c1, the IC50 runs as follows: under setting [1], 592 nM; under setting [2], 574 nM; under setting [3], 610 nM; under setting [4], 348 nM; under setting [5], less than 31.6 nM. In addition, the viability, T/C is 97.9% under setting [6]; 87.5% under setting [7]; 63.4% under setting [8]; 39.5% under setting [9]; 16.3% under setting [10]; 9.46% under setting [11]. For the same compound, the viability, T/C by setting is: under setting [12], 89.1%; under setting [13], 82.1%; under setting [14], 61.4%; under setting [15], 39.2%; under setting [16], 17.5%; under setting [17], 8.03%. Further, the viability, T/C was 85.8% under setting [18]; 88.4% under setting [19]; 64.2% under setting [20]; 38.1% under setting [21]; 16.9% under setting [22]; 8.49% under setting [23]. For the same compound, the viability, T/C is 89.6% under setting [24]; 68.2% under setting [25]; 57% under setting [26]; 28.2% under setting [27]; 12.7% under setting [28]; 8.11% under setting [29]. The viability, T/C reads like this: under setting [30], 32%; under setting [31], 34.8%; under setting [32], 26.3%; under setting [33], 10.3%; under setting [34], 3.46%; under setting [35], 3.1%.
For the compound `CC1(C)CCC(CN2CCN(c3ccc(C(=O)NS(=O)(=O)c4ccc(NCC5CCOCC5)c([N+](=O)[O-])c4)c(Oc4cnc5[nH]ccc5c4)c3)CC2)=C(c2ccc(Cl)cc2)C1`, the viability, T/C runs as follows: (compound 0.0316 µM) 101% and 99.7% and 98.9%; (compound 0.1 µM) 102% and 97.2% and 99%; (compound 0.316 µM) 92.6% and 103% and 110%; (compound 1 µM) 98.6% and 108% and 117%; (compound 3.16 µM) 113% and 107% and 116%; (compound 10 µM) 107% and 105% and 61.2%. In addition, for the setting “curve of compound”, the half-maximal inhibitory concentration (IC50) was more than 10000 nM.
